In patent US11326174B2, “Engineered yeast strains enabling anaerobic xylose fermentation decoupled from microbial growth” (Wisconsin Alumni Research Foundation, priority 2018, dated 2022):
Entries after “also recorded” stand apart in the source; their conditions may differ.

How the values were obtained:
PKA = PKA activity assay: in vitro phosphorylation of a PKA substrate by cell lysate; type: biochemical, Saccharomyces cerevisiae; settings: 50 μM H-89
Description: PKA activity assay. Measurement of PKA activity was performed on lysed cells using the PKA Kinase Activity Assay Kit from ABCAM. Cultures were grown anaerobically in xylose for three doublings (to OD˜0.5), at which 10 mL of cells were collected by centrifugation for 3 minutes at 3000 rpm, in preparation for lysis. Supernatant was removed under anaerobic conditions and the cells were resuspended in 1 mL of SB buffer (1 M sorbitol, 20 mM Tris HCl, pH 7.4) with 300 units of zymolyase (Amsbio) and 10 μL of protease inhibitor cocktail IV (Millipore). Cells were incubated for 10 minutes at 30° C. anaerobically. Cells were collected by […] for 5 minutes at 350×g and washed 1× with SB buffer under anaerobic conditions. Cells were resuspended in 750 μL HLB buffer (10 mM Tris HCl, pH 7.4, 10 mM NaCl, 3 mM MgCl2, 0.3% (vol/vol) NP-40, 10% (vol/vol) glycerol) with 10 μL protease inhibitor cocktail IV and incubated on ice for 10 minutes, anaerobically. […] Lysis was verified using microscopy and total protein abundance was determined using a Bradford assay. […] The reaction was detected using a TECAN Infinite 200 Pro with a wavelength of 450 nm. […] Relative PKA activity was calculated by subtracting […] to remove background, followed by normalization to total protein abundance for each sample. […]

tpk2^as = target: T1, tpk2^as (Saccharomyces cerevisiae, UniProt P06245, M147G); assay: Inhibition of analog-sensitive PKA in Y133 tpk1Δtpk3Δtpk2^as during anaerobic growth on xylose; type: cell-based; settings: 10 μM 1-NM-PP1 added after 17 hours
T1 construct: tpk2as repair templates were generated by PCR of the whole ORF of tpk2as; endogenous in cells; host or cells: S. cerevisiae Y133 tpk1Δtpk3Δtpk2^as; allele placed at the chromosomal TPK2 locus by CRISPR/Cas9 editing
Source text: Y133 tpk1Δtpk3Δtpk2^as was generated using CRISPR/Cas9-mediated genome editing. TPK1 and TPK3 were deleted in Y133 independently and verified by PCR. sgRNA sequence ([…]) that targeted the location within TPK2 to be replaced was cloned into the pXIPHOS vector using Not1 (GenBank accession MG897154), which contains the constitutive RNR2 promoter driving the Cas9 gene and NatMX resistance gene, using gapped plasmid repair using HiFi DNA Assembly Master Mix from NEB. tpk2as repair templates were generated by PCR of the whole ORF of tpk2as from a strain containing mutants of the TPK genes that are sensitive to the ATP-analogue inhibitor 1-NM-PP1 (TPK1 M164G, TPK2 M147G, TPK3 M165G). Purified repair templates were co-transformed at a 20-fold molar excess with the pXIPHOS-TPK2 sgRNA plasmid into Y133 tpk1Δtpk3Δ strain. Colonies resistant to nourseothricin were restreaked onto YPD two times to remove the plasmid (and were verified to now be sensitive to nourseothricin) and tpk2as presence was verified by sequencing. Y133 tpk1Δtpk3Δtpk2^as was grown in xylose anaerobically for 17 hours at which point 10 μM 1-NM-PP1 or DMSO control was added to the cultures.

Y128 = assay: Inhibition of growth using hydroxyurea during anaerobic growth on xylose; type: cell-based, Saccharomyces cerevisiae; settings: 400 mM hydroxyurea added after 17 hours
Description: Inhibition of growth using hydroxyurea. Growth inhibition was performed using 400 mM hydroxyurea, added after 17 hours of anaerobic growth in xylose. Before and after growth inhibition, OD600 as well as sugar and ethanol concentrations were measured as above.

T1 sequence (P06245 whole entry M147G): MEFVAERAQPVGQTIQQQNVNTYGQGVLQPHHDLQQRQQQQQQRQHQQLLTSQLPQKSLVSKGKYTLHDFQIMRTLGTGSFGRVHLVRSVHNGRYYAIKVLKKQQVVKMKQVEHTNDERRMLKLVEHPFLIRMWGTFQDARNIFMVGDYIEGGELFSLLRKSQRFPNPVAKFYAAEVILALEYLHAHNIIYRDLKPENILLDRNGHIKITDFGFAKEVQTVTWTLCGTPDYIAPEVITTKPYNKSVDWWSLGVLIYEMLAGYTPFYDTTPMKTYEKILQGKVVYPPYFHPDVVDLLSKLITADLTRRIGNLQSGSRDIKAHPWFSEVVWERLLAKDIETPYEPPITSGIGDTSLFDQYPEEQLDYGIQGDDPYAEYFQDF

`O=S(=O)(NCCNC/C=C/c1ccc(Br)cc1)c1cccc2cnccc12` [Strain H-89] was tested, and the “Effect on phosphorylation of a PKA substrate in vitro” value (PKA; lysate from Y128 grown anaerobically on xylose) was “blocked” and the “Effect on phosphorylation of a PKA target in vitro” value (PKA; lysate from Y184 bcy1Δ grown anaerobically on xylose) was “blocked”.

With `CC(C)(C)n1nc(Cc2cccc3ccccc23)c2c(N)ncnc21` [Strain 1-NM-PP1] the “Effect on growth and fermentation during anaerobic xylose utilization” value (tpk2^as) was “rapidly inhibited growth and fermentation”.

For `NC(=O)NO` [hydroxyurea], the “Effect on anaerobic xylose utilization” value (Y128) was “does not promote anaerobic xylose utilization; also recorded: halted xylose utilization” and the “Effect on growth (OD600)” value (Y128) was “inhibits growth”.
